Source: PubChem BioAssay AID624439 (The Scripps Research Institute Molecular Screening Center, 2012)
The source made the active and inactive calls.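 The calls were made as follows: active = compounds with an IC50 below 50 µM against the phosphatase; inactive = IC50 at 50 µM or above.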

molecular target: Serine/threonine-protein phosphatase 5 (Homo sapiens) (UniProt P53041); assay: PP5c inhibitor potency on phosphohistone, late-stage follow-up, orthogonal assay, biochemical, radiolabeled phosphohistone, dose response, round 5 (AID 624439); details: purified PP5c, 33P-phosphohistone dephosphorylation, scintillation
Sequence (P53041 whole entry, looked up): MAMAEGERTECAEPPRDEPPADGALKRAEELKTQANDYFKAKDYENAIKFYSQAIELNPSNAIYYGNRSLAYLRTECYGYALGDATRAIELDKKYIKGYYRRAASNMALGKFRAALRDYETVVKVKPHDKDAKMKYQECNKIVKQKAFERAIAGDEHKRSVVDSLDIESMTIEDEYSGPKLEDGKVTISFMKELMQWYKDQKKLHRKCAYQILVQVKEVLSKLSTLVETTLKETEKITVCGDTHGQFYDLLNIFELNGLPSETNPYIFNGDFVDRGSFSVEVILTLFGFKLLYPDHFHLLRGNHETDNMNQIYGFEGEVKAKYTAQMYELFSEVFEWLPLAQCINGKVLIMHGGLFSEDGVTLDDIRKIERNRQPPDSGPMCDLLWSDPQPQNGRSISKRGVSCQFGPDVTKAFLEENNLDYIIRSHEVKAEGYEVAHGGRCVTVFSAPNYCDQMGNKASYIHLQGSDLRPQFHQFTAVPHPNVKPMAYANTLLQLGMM

Compound | IC50
COc1ccccc1-c1n[nH]nc1C(=O)O | 29.7 µM
COc1ccc(-c2n[nH]nc2C(=O)O)cc1 | inactive
O=C(O)c1n[nH]nc1-c1ccccc1O | 31.4 µM
O=C(O)c1n[nH]nc1-c1cccc(F)c1 | inactive

The remaining lines, values ahead:

IC50 | Compound
17.1 µM | CC(C)Oc1ccccc1-c1n[nH]nc1C(=O)O
42.2 µM | O=C(O)c1n[nH]nc1-c1ccccc1F
49 µM | COc1cccc(-c2n[nH]nc2C(=O)O)c1
inactive | O=C(O)c1n[nH]nc1-c1ccc(F)cc1
